One block for each compound: values may come before it.
Assays:
[1] = tested on: Human breast cancer cells MDA-MB-436; test: MDA-MB-436 cell activity test (CellTiter-Glo); assay type: cell-based; conditions: 168 h, MDA-MB-436, 7 days incubation
Description: On day 1, the cells in the exponential growth phase were collected, and the cell suspension was adjusted to 4000 cells/135 μL with the culture medium. 135 μL of the cell suspension was added to each well of a 96-well cell culture plate and incubated overnight. On day 2, compounds at different concentrations were added, and the plate was placed in the incubator and incubated for 7 days. After the incubation was completed, according to operation instructions for a CellTiter-Glo kit (Promega, G7573), 75 μL of CTG solution, which had already been pre-melted and equilibrated to room temperature, was added to each well, and the mixture was uniformly mixed for 2 min using a microplate shaker. The plate was placed at room temperature for 10 min, and then […] signal values were measured using an Envision2104 plate reader (PerkinElmer). […] The IC50 value was calculated using GraphPad Prism software.

[2] = tested on: MDA-MB-436 subcutaneous transplanted tumor; test: Mouse MDA-MB-436 subcutaneous in vivo transplanted tumor model; design: species or system BALB/c nude mice
Description: Human breast cancer cells MDA-MB-436 were placed in Leibovitz's L-15 medium (supplemented with 10 μg/mL insulin, 16 μg/mL glutathione, 10% fetal bovine serum and 1% penicillin-streptomycin solution) and cultured at 37° C. Conventional digestion treatment with trypsin was performed twice a week for passage. When the cell saturation was 80%-90%, and the number reached the requirement, the cells were harvested, counted, and inoculated. BALB/c nude mice (from Beijing Vital River Laboratory Animal Technology Co., Ltd.) were subcutaneously inoculated with 0.2 mL (10×10^6) of MDA-MB-436 cells (plus matrigel, with the volume ratio of 1:1) on the right back. When the average tumor volume reached about 180 mm^3, grouping and administration were performed (marked as Day 0). The solvent group was given 5% DMSO, 30% PEG400 and 65% of 20% sulfobutyl-β-cyclodextrin solution, and the administration group was given the compound (Day 0-Day 10:1 mg/kg; Day 11-Day 28:0.1 mg/kg). The administration frequency was once a day, the administration cycle was 29 days, and the drug withdrawal observation period was set to 14 days. After grouping, the tumor diameter was measured twice a week with a vernier caliper. The formula for calculating the tumor volume was: V=0.5×a×b^2, where a and b represented the long and short diameters of the tumor, respectively.

[3] = Pharmacokinetic test in rats; assay type: in vivo, SD rats; conditions: rat, i.g. 10 mg/kg
Description: • 1.1 Experimental animals: male SD rats, about 220 g, 6-8 weeks old, 6 rats/compound. Purchased from Chengdu Ddossy Experimental Animals Co., Ltd. • 1.2 Experimental design: on the day of the experiment, 6 SD rats were randomly grouped according to their body weights. The animals were fasted with water available for 12 to 14 h one day before the administration and were fed 4 h after the administration. [table] Before and after the administration, 0.15 mL of blood was taken from the orbit of the animals under isoflurane anesthesia and placed in an EDTAK2 centrifuge tube. The blood was centrifuged at 5000 rpm and 4° C. for 10 min to collect plasma. The blood collection time points for the intravenous administration group and intragastric administration group were: 0, 5 min, 15 min, 30 min, 1 h, 2 h, 4 h, 6 h, 8 h and 24 h. Before analysis and detection, all samples were stored at −80° C. The samples were analyzed quantitatively by LC-MS/MS.

[4] = Stability test of crystal form (purity by HPLC); assay type: physicochemical
Description: Samples were taken and tested at 92.5% RH, 40° C. and 60° C. respectively. The purity (represented by a percentage) was detected by HPLC.
With regard to methods for preparing test solutions and conditions for detecting purity by HPLC, reference was made to Tables 13 and 14.

- IC50 [1]: 2 nM
- F [3]: 98.8%
SMILES: CCc1cc2ncc(CN3CCN(c4ccc(C(=O)NC5CC5)nc4)CC3)cc2[nH]c1=O [Compound I, N-cyclopropyl-5-(4-((7-ethyl-6-oxo-5,6-dihydro-1,5-naphthyridin-3-yl)methyl)piperazin-1-yl)pyridine carboxamide]
- inhibition at 10 µM ([1]; 10 μM, read-out: Max inh. % 10 μM): 89.4%
- tumor growth after the drug withdrawal ([2]; 14 days drug withdrawal observation): did not grow again
- body weight of the animals ([2]; Day 0-10 1 mg/kg, Day 11-28 0.1 mg/kg, once a day): no significant decrease
- TGI ([2]; after 28 days of administration, Day 0-10 1 mg/kg, Day 11-28 0.1 mg/kg, once a day): 119%

- Maximum individual impurity ([4]; 0 d): 0.494%
- RRT 0.31 impurity ([4]; 0 d): 0.494%
- RRT 0.36 impurity ([4]; 0 d): 0.071%
- RRT 0.49 impurity ([4]; 0 d): 0.170%
- RRT 0.72 impurity ([4]; 0 d): 0.248%
- RRT 1.00 (purity by HPLC) ([4]; 0 d): 98.425%
- RRT 1.14 impurity ([4]; 0 d): 0.065%
- RRT 1.33 impurity ([4]; 0 d): 0.079%
- Total impurity ([4]; 0 d): 1.575%
- Maximum individual impurity ([4]; 40° C.-6 d): 0.438%
- RRT 0.31 impurity ([4]; 40° C.-6 d): 0.438%
- RRT 0.36 impurity ([4]; 40° C.-6 d): 0.097%
- RRT 0.49 impurity ([4]; 40° C.-6 d): 0.195%
- RRT 0.72 impurity ([4]; 40° C.-6 d): 0.241%
- RRT 1.00 (purity by HPLC) ([4]; 40° C.-6 d): 98.494%
- RRT 1.14 impurity ([4]; 40° C.-6 d): 0.071%
- RRT 1.33 impurity ([4]; 40° C.-6 d): 0.069%
- Total impurity ([4]; 40° C.-6 d): 1.506%
- Maximum individual impurity ([4]; 40° C.-10 d): 0.507%
- RRT 0.31 impurity ([4]; 40° C.-10 d): 0.507%
- RRT 0.36 impurity ([4]; 40° C.-10 d): 0.100%
- RRT 0.49 impurity ([4]; 40° C.-10 d): 0.194%
- RRT 0.72 impurity ([4]; 40° C.-10 d): 0.232%
- RRT 1.00 (purity by HPLC) ([4]; 40° C.-10 d): 98.459%
- RRT 1.14 impurity ([4]; 40° C.-10 d): 0.069%
- RRT 1.33 impurity ([4]; 40° C.-10 d): 0.061%
- Total impurity ([4]; 40° C.-10 d): 1.541%
- Maximum individual impurity ([4]; 40° C.-30 d): 0.467%
- RRT 0.31 impurity ([4]; 40° C.-30 d): 0.467%
- RRT 0.36 impurity ([4]; 40° C.-30 d): 0.115%
- RRT 0.49 impurity ([4]; 40° C.-30 d): 0.144%
- RRT 0.72 impurity ([4]; 40° C.-30 d): 0.252%
- RRT 1.00 (purity by HPLC) ([4]; 40° C.-30 d): 98.519%
- RRT 1.14 impurity ([4]; 40° C.-30 d): 0.077%
- RRT 1.33 impurity ([4]; 40° C.-30 d): 0.060%
- Total impurity ([4]; 40° C.-30 d): 1.481%
- Maximum individual impurity ([4]; 60° C.-6 d): 0.452%
- RRT 0.31 impurity ([4]; 60° C.-6 d): 0.452%
- RRT 0.36 impurity ([4]; 60° C.-6 d): 0.097%
- RRT 0.49 impurity ([4]; 60° C.-6 d): 0.193%
- RRT 0.72 impurity ([4]; 60° C.-6 d): 0.229%
- RRT 1.00 (purity by HPLC) ([4]; 60° C.-6 d): 98.522%
- RRT 1.14 impurity ([4]; 60° C.-6 d): 0.070%
- RRT 1.33 impurity ([4]; 60° C.-6 d): 0.064%
- Total impurity ([4]; 60° C.-6 d): 1.478%
- Maximum individual impurity ([4]; 60° C.-10 d): 0.498%
- RRT 0.31 impurity ([4]; 60° C.-10 d): 0.498%
- RRT 0.36 impurity ([4]; 60° C.-10 d): 0.103%
- RRT 0.49 impurity ([4]; 60° C.-10 d): 0.206%
- RRT 0.72 impurity ([4]; 60° C.-10 d): 0.247%
- RRT 1.00 (purity by HPLC) ([4]; 60° C.-10 d): 98.447%
- RRT 1.14 impurity ([4]; 60° C.-10 d): 0.068%
- RRT 1.33 impurity ([4]; 60° C.-10 d): 0.069%
- Total impurity ([4]; 60° C.-10 d): 1.553%
- Maximum individual impurity ([4]; 60° C.-30 d): 0.457%
- RRT 0.31 impurity ([4]; 60° C.-30 d): 0.457%
- RRT 0.36 impurity ([4]; 60° C.-30 d): 0.112%
- RRT 0.49 impurity ([4]; 60° C.-30 d): 0.145%
- RRT 0.72 impurity ([4]; 60° C.-30 d): 0.244%
- RRT 1.00 (purity by HPLC) ([4]; 60° C.-30 d): 98.499%
- RRT 1.14 impurity ([4]; 60° C.-30 d): 0.084%
- RRT 1.33 impurity ([4]; 60° C.-30 d): 0.056%
- Total impurity ([4]; 60° C.-30 d): 1.501%
- chemical stability ([4]; 92.5% RH, 40° C. and 60° C., up to 30 d): good chemical stability
- Maximum individual impurity ([4]; 92.5% RH-6 d): 0.468%
- RRT 0.31 impurity ([4]; 92.5% RH-6 d): 0.468%
- RRT 0.36 impurity ([4]; 92.5% RH-6 d): 0.107%
- RRT 0.49 impurity ([4]; 92.5% RH-6 d): 0.191%
- RRT 0.72 impurity ([4]; 92.5% RH-6 d): 0.244%
- RRT 1.00 (purity by HPLC) ([4]; 92.5% RH-6 d): 98.503%
- RRT 1.14 impurity ([4]; 92.5% RH-6 d): 0.068%
- RRT 1.33 impurity ([4]; 92.5% RH-6 d): 0.066%
- Total impurity ([4]; 92.5% RH-6 d): 1.497%
- Maximum individual impurity ([4]; 92.5% RH-10 d): 0.518%
- RRT 0.31 impurity ([4]; 92.5% RH-10 d): 0.518%
- RRT 0.36 impurity ([4]; 92.5% RH-10 d): 0.110%
- RRT 0.49 impurity ([4]; 92.5% RH-10 d): 0.206%
- RRT 0.72 impurity ([4]; 92.5% RH-10 d): 0.246%
- RRT 1.00 (purity by HPLC) ([4]; 92.5% RH-10 d): 98.358%
- RRT 1.14 impurity ([4]; 92.5% RH-10 d): 0.073%
- RRT 1.33 impurity ([4]; 92.5% RH-10 d): 0.066%
- Total impurity ([4]; 92.5% RH-10 d): 1.642%
- Maximum individual impurity ([4]; 92.5% RH-30 d): 0.475%
- RRT 0.31 impurity ([4]; 92.5% RH-30 d): 0.475%
- RRT 0.36 impurity ([4]; 92.5% RH-30 d): 0.099%
- RRT 0.49 impurity ([4]; 92.5% RH-30 d): 0.137%
- RRT 0.72 impurity ([4]; 92.5% RH-30 d): 0.243%
- RRT 1.00 (purity by HPLC) ([4]; 92.5% RH-30 d): 98.499%
- RRT 1.14 impurity ([4]; 92.5% RH-30 d): 0.075%
- RRT 1.33 impurity ([4]; 92.5% RH-30 d): 0.056%
- Total impurity ([4]; 92.5% RH-30 d): 1.501%
SMILES: CCc1cc2ncc(CN3CCN(c4ccc(C(=O)NC5CC5)nc4)CC3)cc2[nH]c1=O [crystal form G, N-cyclopropyl-5-(4-((7-ethyl-6-oxo-5,6-dihydro-1,5-naphthyridin-3-yl)methyl)piperazin-1-yl)pyridine carboxamide]

Source: patent US20260055104A1, “CRYSTAL FORM OF HETEROARYL DERIVATIVE PARP INHIBITOR AND USE THEREOF” (priority 2022, published 2026)
